Where a name gives a salt, the structure may show the parent alone.
Key:
MCF-7 cells [1] = test: Clonogenic assay of MCF-7 cells with DOX and PEMF; format: cell-based; conditions: 20 nM DOX, low density of 100 cells per well
Protocol: FIG. 13. […] (A) Schematic of PEMF and DOX treatment regime for DNA quantification. Cells were exposed to 3 mT for 1 h daily for 3 successive days. DOX (100 nM) was administered on the final day 1 h before the last PEMF exposure. Cellular DNA content was measured 24 h after the last PEMF exposure. (B) Bar chart of pooled data for Cyquant DNA content in fold change 24 h post-DOX and PEMF treatments. (C) Colony formation paradigm for MCF-7 cells treated with DOX and PEMFs. (D) MCF-7 colony formation in the presence of 10 and 20 nM DOX, with and without PEMF exposure as indicated. Cells were seeded at a low density of 100 cells per well. (E) Colony survival in 10 nM DOX under low-density conditions. […] (F) MCF-7 colony formation in the presence of 10 and 20 nM DOX, with and without PEMF exposure under high-density seeding of 1000 cells per well. […] (H) Absolute DCH2FDA-ROS fluorescence from MCF-7 cells. […]
In vitro clonogenic assay was performed using crystal violet staining (24). […] The mean survival factor (colony count) was determined as the number of surviving cells over the number of cells plated and normalized to the survival factor of the control group expressed as fold change. The colony size relative frequency was determined by binning colonies into several bins, according to their relative size from the smallest to the largest colonies after normalizing to the total number of cells.

MCF-7 xenograft = MCF-7 xenograft in mice, DOX and/or PEMF; format: in vivo; conditions: weekly PEMF and DOX exposures
Protocol: (A) Schematic of weekly PEMF and DOX exposures on MCF-7 xenograft in mice. Implanted cells were allowed to grow for 3 weeks before the initiation of DOX and/or PEMF treatment. Apoptotic cell determination was performed at the end of the study. […] N=6 mice, with *, p<0.05, **, p 1137<0.01, and #, p<0.0001. The error bars are expressed as the standard error of the mean.
The NSG mice were purchased from Jackson's laboratory and used at 8-10 weeks of age. Briefly, each female NSG mouse was implanted with a subcutaneous 60-day (0.36 mg) slow-release estradiol pellet (Innovative Research of America). […] The tumors were allowed to grow for 3 weeks. For MCF-7, 1×10^6 cells were counted and mixed in a 40-60% ratio with Matrigel Growth Factor (Bio Laboratories, Cat No. 354230). The cells are injected subcutaneously into the dorsal flank of the animals corresponding to the different treatment groups. The animals were given 20 mg/kg DOX intravenously and/or PEMFs stimulation for 1 h weekly for 5 weeks. At the end of the study, tumor volume was measured and isolated for apoptotic cell determination.
For apoptotic cell determination, the tumors were dissociated to single cells using the MACS Tumor Dissociation Kit in combination with the gentleMACS Dissociator (Miltenyi Biotec) as according to the manufacturer's protocol. After dissociation, the cells were filtered through a 30 μm MACS SmartStrainer. […]

MCF-7/TRPC1 cells = test: DNA content and colony formation of TRPC1 overexpressing MCF-7 cells with DOX and PEMF; format: cell-based; conditions: TRPC1 overexpression versus vector cells
Protocol: FIG. 17. […] (A) PEMF and DOX treatment regime for MCF-7/TRPC1 cell DNA quantification. (B) DNA fold change relative to 0 mT vector cells. Statistical analysis was done using the two-sample t-test. (C) Colony formation after 10 days in the presence of 0 nM, 10 nM or 20 nM DOX, without PEMF exposure. Images of colony formation and the quantification of colony size frequency distribution normalized to the total number of colonies in the presence of 10 nM DOX for (D) vector and (E) MCF-7/TRPC1 cells or 20 nM DOX for (F) vector and (G) MCF-7/TRPC1 cells, concomitant with daily PEMF exposure. *, p<0.05, **, p<0.01 and ***, p<0.001 indicate the statistical difference between the respective 0 mT and 3 mT condition within the same bin. (H) PEMF-modulated proliferation of TRPC1-silenced MCF-7 cells 48 h post dsiRNA transfection. […]
(§1) For cell enumeration using trypan blue exclusion assay, MCF-7, MDA-MB-231, or MCF10A cells were seeded at 6000 cells/cm^2 per well of a 6-well plate. […] Cyquant stained DNA was measured using at 480/520 nm using Cytation 5 microplate reader (BIOTEK).
In vitro clonogenic assay was performed using crystal violet staining (24). […] The mean survival factor (colony count) was determined as the number of surviving cells over the number of cells plated and normalized to the survival factor of the control group expressed as fold change. […]

MCF-7 cells [2] = test: Cyquant DNA content of MCF-7 cells after DOX and PEMF; format: cell-based; conditions: DOX 100 nM; 3 mT PEMF 1 h daily for 3 days
Protocol: FIG. 13. […] (A) Schematic of PEMF and DOX treatment regime for DNA quantification. Cells were exposed to 3 mT for 1 h daily for 3 successive days. DOX (100 nM) was administered on the final day 1 h before the last PEMF exposure. Cellular DNA content was measured 24 h after the last PEMF exposure. (B) Bar chart of pooled data for Cyquant DNA content in fold change 24 h post-DOX and PEMF treatments. (C) Colony formation paradigm for MCF-7 cells treated with DOX and PEMFs. (D) MCF-7 colony formation in the presence of 10 and 20 nM DOX, with and without PEMF exposure as indicated. Cells were seeded at a low density of 100 cells per well. (E) Colony survival in 10 nM DOX under low-density conditions. […] (F) MCF-7 colony formation in the presence of 10 and 20 nM DOX, with and without PEMF exposure under high-density seeding of 1000 cells per well. The images on the right are the zoom-in images of cells under the same treatment paradigm. […] (H) Absolute DCH2FDA-ROS fluorescence from MCF-7 cells. […]
as §1

[3] = tested on: patient-derived tumor xenografts; test: Patient-derived tumor xenografts in NSG mice, DOX and/or PEMF; format: in vivo; conditions: 20 mg/kg DOX intravenously and/or PEMF 1 h weekly for 5 weeks
Protocol: (A) Schematic of PEMF and DOX exposures regimes used on mice hosting patient-derived tumor xenografts. Implanted tumors were allowed to grow for 3 weeks before the initiation of DOX and/or PEMF treatments. Tumor volumes were measured each week while apoptotic cell determination was performed at the end of the study. Each data point represents the mean from 5 experimental runs derived from the tumors obtained from 5 patients, each of which was equally divided amongst the 5 treatment groups. (B) Changes in tumor volume (mm^3) for 5 weeks. (C) Representative scatter dot-plots showing cell population of dissociated tumors sorted based on annexin and propidium iodide staining. (D) Bar chart represents pooled data of apoptotic cell percentages analyzed using flow cytometry. N=5 mice, with *, p<0.05, **, p<0.01, and #p<0.0001. The error bars are expressed as the standard error of the mean.
The NSG mice were purchased from Jackson's laboratory and used at 8-10 weeks of age. Briefly, each female NSG mouse was implanted with a subcutaneous 60-day (0.36 mg) slow-release estradiol pellet (Innovative Research of America). Each patient tumor was equally divided into 5 chunks and implanted into the dorsal flank of 5 animals corresponding to the 5 different treatment groups. […] At the end of the study, tumor volume was measured and isolated for apoptotic cell determination. […]

TRPA1 = target: T1, TRPA1 (Mus musculus, UniProt Q8BLA8); test: TRP channel functional assessment of immobilized CDVs (menthol, Fluo-4 calcium signal); format: biochemical, Murine; conditions: Fluo-4 loaded myoblast-derived CDVs on microfluidic chip; versus CDVs not administered menthol
T1 construct: containing Fluo-4 loaded myoblast-derived CDVs from the same culture; endogenous in cells
T1 sequence (Q8BLA8 whole entry): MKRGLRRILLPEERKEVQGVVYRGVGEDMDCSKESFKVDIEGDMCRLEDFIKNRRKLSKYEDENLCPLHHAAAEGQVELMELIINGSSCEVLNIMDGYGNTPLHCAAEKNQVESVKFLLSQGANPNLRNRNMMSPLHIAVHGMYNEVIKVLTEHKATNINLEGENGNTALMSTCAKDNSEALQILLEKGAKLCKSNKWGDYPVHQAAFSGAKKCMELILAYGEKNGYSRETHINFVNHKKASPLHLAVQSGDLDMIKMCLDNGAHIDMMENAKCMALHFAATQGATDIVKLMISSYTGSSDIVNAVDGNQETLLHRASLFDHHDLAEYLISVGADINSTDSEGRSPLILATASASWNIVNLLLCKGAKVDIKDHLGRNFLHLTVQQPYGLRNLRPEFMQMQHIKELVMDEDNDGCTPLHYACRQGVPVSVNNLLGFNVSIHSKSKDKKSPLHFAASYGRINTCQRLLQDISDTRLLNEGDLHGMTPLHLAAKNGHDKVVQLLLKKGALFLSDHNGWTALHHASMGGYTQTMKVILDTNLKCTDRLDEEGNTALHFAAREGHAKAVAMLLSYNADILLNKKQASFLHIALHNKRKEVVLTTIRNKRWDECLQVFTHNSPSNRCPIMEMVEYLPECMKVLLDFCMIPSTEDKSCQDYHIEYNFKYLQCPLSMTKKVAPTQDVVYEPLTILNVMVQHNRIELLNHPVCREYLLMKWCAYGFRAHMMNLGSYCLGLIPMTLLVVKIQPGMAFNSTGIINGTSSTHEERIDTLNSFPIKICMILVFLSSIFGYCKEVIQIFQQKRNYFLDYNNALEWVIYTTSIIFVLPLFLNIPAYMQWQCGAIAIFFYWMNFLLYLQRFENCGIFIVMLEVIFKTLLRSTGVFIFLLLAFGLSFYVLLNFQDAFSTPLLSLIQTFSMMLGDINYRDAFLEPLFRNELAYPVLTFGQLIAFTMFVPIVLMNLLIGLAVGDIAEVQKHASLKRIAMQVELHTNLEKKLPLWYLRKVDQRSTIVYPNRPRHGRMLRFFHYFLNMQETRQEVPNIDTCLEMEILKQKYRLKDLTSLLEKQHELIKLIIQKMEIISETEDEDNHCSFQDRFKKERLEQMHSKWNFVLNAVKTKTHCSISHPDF
Source text: FIG. 1. Schematic depicting the tests applied to CDVs to ascertain 1) innate channel functionality and 2) recuperative potential for cellular respiratory and proliferative capacities. 1) Cell-free assays were comprised of examining specific TRP channel activation by menthol (TRPA1) or magnetic fields (TRPC1). 2) Cell-based assays entailed administering wild type CDVs to TRPC1-knockdown myoblasts followed by testing for recuperation of cellular proliferative and mitochondrial respiratory capacities.
FIG. 4. A) Schematics of the CDV immobilization 1), loading 2), and TRP channel functional assessment 3). […] Red fluorescence is Texas Red as part of the biochemical linker, the dotted line indicates the edge of the print. […] Data were simultaneously recorded from 3 parallel channels of the same microfluidic chip containing Fluo-4 loaded myoblast-derived CDVs from the same culture, 2 channels with menthol administration and one without (negative control). […] Representative calcium responses (Rate of Rise (ROR) normalized to starting value) from intact C2C12 myoblasts D) or CDVs E) derived from wild type C2C12 myoblasts (left) or C2C12 CRISPR/Cas9 knockdown myoblasts, 60 (middle), and 61 (right), in response to 10 min magnetic field exposure (1.5 mT) while in suspension immediately before reading. […]

Compound	colony number (MCF-7 cells [1])	MCF-7 tumor growth (MCF-7 xenograft)	sensitivity of MCF-7 cells to doxorubicin (MCF-7/TRPC1 cells)	MCF-7 cell vulnerability to doxorubicin (DNA content) (MCF-7 cells [2])	tumor growth [3]	intra-CDV calcium concentration (TRPA1)
COc1cccc2c1C(=O)c1c(O)c3c(c(O)c1C2=O)C[C@@](O)(C(=O)CO)C[C@@H]3O[C@H]1C[C@H](N)[C@H](O)[C@H](C)O1 [DOX, Doxorubicin hydrochloride]	too few to quantify accurately	synergize with doxorubicin to inhibit MCF-7 tumor growth in vivo	TRPC1 overexpression sensitizes MCF-7 cells to doxorubicin	enhances MCF-7 cell vulnerability to doxorubicin	synergize with DOX to inhibit tumor growth in vivo	–
CC1CCC(C(C)C)C(O)C1 (stereo not drawn) [Menthol, menthol]	–	–	–	–	–	increases in intra-CDV calcium concentration

— patent US20230372244A1, “Methods of Preparing Cell-Derived Vesicles” (NATIONAL UNIVERSITY OF SINGAPORE, priority 2020, published 2023)
